Reference: patent US12448369B2 (Edgewise Therapeutics, Inc., priority 2023, dated 2025)

How the values were obtained:
[1] = target: T1, Porcine ventricle myofibrils (ventricular myosin ATPase) (Sus scrofa, UniProt P79293); assay: Myofibril ATPase assay, porcine ventricle myofibrils; format: biochemical, porcine (Yucatan minipigs); details: porcine ventricle myofibrils
T1 construct: Myofibrils from porcine cardiac muscle was isolated from the left ventricle of Yucatan minipigs; tissue Exemplar Genetics; host or cells: left ventricle of Yucatan minipigs, myofibrils prepared in house
Summary of the method: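 In a coupled enzyme format, ADP from myofibril ATPase drives NADH oxidation, monitored kinetically at 340 nm for 75 min using minipig ventricle myofibrils. Effective concentrations giving 25% loss or gain of activity relative to vehicle were calculated from 4-parameter fits.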

[2] = test system: Porcine atria myofibrils (atrial myosin ATPase); assay: Myofibril ATPase assay, porcine atria myofibrils; format: biochemical; details: porcine atria myofibrils
Summary of the method: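 Coupled PK-LDH readout, NADH loss at 340 nm, kinetic 75 min. Porcine atria myofibrils, pCa buffer (PIPES/CaCl2/EGTA, pH 7.0). Slopes (mAU/min) normalized to vehicle = 100%, 4-parameter fit; Y75 or Y125 reported.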

[3] = test system: Rabbit Psoas myofibrils (skeletal myosin ATPase); assay: Myofibril ATPase assay, rabbit psoas (skeletal) myofibrils; format: biochemical; details: rabbit psoas myofibrils
Summary of the method: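 Readout: A340 decline from NADH oxidation, PK/LDH-coupled to ADP release; kinetic reads over 75 min. Buffer: pCa (PIPES, CaCl2, EGTA), pH 7.0. Linear-regression slopes vs vehicle, 4PL fit; reported as concentration giving 75% (Y75) or 125% (Y125) of vehicle activity.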

[4] = ‡ Y125 value, not a Y75 value (125% activity relative to no compound)

T1 sequence (P79293 whole entry): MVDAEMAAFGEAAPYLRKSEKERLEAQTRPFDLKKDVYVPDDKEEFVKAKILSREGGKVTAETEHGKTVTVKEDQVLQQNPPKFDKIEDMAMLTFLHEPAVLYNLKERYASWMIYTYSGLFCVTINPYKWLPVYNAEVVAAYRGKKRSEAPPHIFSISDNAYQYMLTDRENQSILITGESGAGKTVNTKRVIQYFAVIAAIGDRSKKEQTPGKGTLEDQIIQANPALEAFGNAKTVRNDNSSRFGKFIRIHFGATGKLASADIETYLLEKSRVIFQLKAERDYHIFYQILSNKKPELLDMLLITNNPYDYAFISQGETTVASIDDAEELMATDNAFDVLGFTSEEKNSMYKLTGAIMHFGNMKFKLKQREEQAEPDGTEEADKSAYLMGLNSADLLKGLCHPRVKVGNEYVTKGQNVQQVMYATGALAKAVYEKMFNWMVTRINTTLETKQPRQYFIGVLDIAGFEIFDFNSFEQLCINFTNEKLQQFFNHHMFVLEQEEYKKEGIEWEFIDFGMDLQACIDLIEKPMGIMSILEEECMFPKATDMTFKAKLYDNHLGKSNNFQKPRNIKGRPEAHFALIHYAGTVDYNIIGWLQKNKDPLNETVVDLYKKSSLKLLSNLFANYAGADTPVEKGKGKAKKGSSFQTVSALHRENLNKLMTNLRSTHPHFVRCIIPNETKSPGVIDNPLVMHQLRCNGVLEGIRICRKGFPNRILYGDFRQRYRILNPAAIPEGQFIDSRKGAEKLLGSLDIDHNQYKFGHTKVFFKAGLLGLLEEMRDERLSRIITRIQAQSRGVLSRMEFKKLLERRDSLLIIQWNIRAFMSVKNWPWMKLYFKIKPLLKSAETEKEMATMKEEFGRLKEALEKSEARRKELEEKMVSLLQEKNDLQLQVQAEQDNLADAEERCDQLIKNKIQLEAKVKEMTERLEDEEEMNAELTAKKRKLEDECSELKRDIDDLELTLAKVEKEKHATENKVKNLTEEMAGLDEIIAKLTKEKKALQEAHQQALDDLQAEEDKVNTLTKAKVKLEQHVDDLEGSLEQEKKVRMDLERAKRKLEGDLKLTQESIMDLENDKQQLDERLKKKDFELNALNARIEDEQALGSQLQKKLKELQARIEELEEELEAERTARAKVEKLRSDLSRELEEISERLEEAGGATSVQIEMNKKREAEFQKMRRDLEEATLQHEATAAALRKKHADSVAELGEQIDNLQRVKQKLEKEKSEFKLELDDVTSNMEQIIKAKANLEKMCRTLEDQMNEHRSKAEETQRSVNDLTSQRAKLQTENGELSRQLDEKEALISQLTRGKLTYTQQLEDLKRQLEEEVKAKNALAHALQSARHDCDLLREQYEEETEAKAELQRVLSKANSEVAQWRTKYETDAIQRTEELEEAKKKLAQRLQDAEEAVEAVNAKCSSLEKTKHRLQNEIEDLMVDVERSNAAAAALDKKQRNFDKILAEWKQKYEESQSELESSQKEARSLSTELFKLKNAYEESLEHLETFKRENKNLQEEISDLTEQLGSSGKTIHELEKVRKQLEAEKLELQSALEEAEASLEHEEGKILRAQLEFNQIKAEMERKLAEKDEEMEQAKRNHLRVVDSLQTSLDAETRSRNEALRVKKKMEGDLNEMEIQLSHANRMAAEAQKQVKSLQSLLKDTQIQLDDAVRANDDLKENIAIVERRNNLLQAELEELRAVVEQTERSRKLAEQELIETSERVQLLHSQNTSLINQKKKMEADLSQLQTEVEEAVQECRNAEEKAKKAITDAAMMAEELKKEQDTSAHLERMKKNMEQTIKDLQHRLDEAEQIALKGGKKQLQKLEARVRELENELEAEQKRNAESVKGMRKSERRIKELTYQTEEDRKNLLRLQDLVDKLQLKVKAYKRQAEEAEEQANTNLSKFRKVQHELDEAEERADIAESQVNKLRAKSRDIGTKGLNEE

| Ventricular EC25 ([1]; Y75 value (no ‡ mark)) [µM] | Atrial EC25 ([2]; Y75 value (no ‡ mark)) [µM] | Skeletal EC25 ([3]; Y75 value (no ‡ mark)) [µM] | Skeletal EC25 [3, 4] | Ventricular EC25 [1, 4] | Atrial EC25 [2, 4] | Structure (SMILES) |
| --- | --- | --- | --- | --- | --- | --- |
| 100.00 | 100.00 | 100.00 | – | – | – | C[C@@H](NC(=O)C(F)(F)c1cc2cc(F)ccc2[nH]c1=O)c1nccc(C#N)n1 (single isomer, unassigned) [compound 2559] |
| 100.00 | 100.00 | – | 61.98‡ μM | – | – | C[C@H](NC(=O)C(F)(F)c1cc2cc(F)ccc2[nH]c1=O)c1nccc(C#N)n1 (single isomer, unassigned) [compound 2560] |
| 0.79 | 0.23 | 0.25 | – | – | – | C[C@@H](NC(=O)C(F)(F)c1cc2c(F)c(F)ccc2[nH]c1=O)c1nccc(C#N)n1 (single isomer, unassigned) [compound 2561] |
| 0.75 | 0.15 | 0.28 | – | – | – | C[C@H](NC(=O)C(F)(F)c1cc2c(F)c(F)ccc2[nH]c1=O)c1nccc(C#N)n1 (single isomer, unassigned) [compound 2562] |
| 0.54 | 0.15 | 0.12 | – | – | – | Cc1c(C(F)(F)C(=O)N[C@H](C)c2cnc(C#N)cn2)c(=O)[nH]c2ccc(F)cc12 (single isomer, unassigned) [compound 2563] |
| 0.89 | 0.51 | 0.49 | – | – | – | Cc1c(C(F)(F)C(=O)N[C@@H](C)c2cnc(C#N)cn2)c(=O)[nH]c2ccc(F)cc12 (single isomer, unassigned) [compound 2564] |
| 100.00 | 14.39 | 100.00 | – | – | – | Cc1c(C(F)(F)C(=O)N[C@H](C)c2cccc(C#N)n2)c(=O)[nH]c2ccc(F)cc12 (single isomer, unassigned) [compound 2565] |
| – | 100.00 | – | 100.00‡ μM | 100.00‡ μM | – | Cc1c(C(F)(F)C(=O)N[C@@H](C)c2cccc(C#N)n2)c(=O)[nH]c2ccc(F)cc12 (single isomer, unassigned) [compound 2566] |
| 1.07 | 0.34 | 0.33 | – | – | – | Cc1nc(C#N)cnc1[C@@H](C)NC(=O)C(F)(F)c1c(C)c2cc(F)ccc2[nH]c1=O (single isomer, unassigned) [compound 2567] |
| 0.58 | 0.57 | 0.11 | – | – | – | Cc1nc(C#N)cnc1[C@H](C)NC(=O)C(F)(F)c1c(C)c2cc(F)ccc2[nH]c1=O (single isomer, unassigned) [compound 2568] |
| 8.06 | 40.54 | 100.00 | – | – | – | C[C@@H](NC(=O)C(F)(F)c1cc2c(F)c(F)ccc2[nH]c1=O)c1cccc(C#N)n1 (single isomer, unassigned) [compound 2571] |
| – | 100.00 | 100.00 | – | 100.00‡ μM | – | C[C@H](NC(=O)C(F)(F)c1cc2c(F)c(F)ccc2[nH]c1=O)c1cccc(C#N)n1 (single isomer, unassigned) [compound 2572] |
| 100.00 | 100.00 | 100.00 | – | – | – | C[C@H](NC(=O)C(F)(F)c1cc2cc(F)ccc2[nH]c1=O)c1cc(C#N)ccn1 (single isomer, unassigned) [compound 2574] |
| 20.79 | 16.13 | 14.65 | – | – | – | Cc1c(C(F)(F)C(=O)N[C@H](C)c2cc(C#N)ccn2)c(=O)[nH]c2ccc(F)cc12 (single isomer, unassigned) [compound 2575] |
| 100.00 | 38.95 | 76.36 | – | – | – | Cc1c(C(F)(F)C(=O)N[C@@H](C)c2cc(C#N)ccn2)c(=O)[nH]c2ccc(F)cc12 (single isomer, unassigned) [compound 2576] |
| 100.00 | 19.55 | 100.00 | – | – | – | Cc1c(C2(C(=O)N[C@H](C)c3cc(C#N)ccn3)CC2)c(=O)[nH]c2ccc(F)cc12 (single isomer, unassigned) [compound 2577] |
| – | – | – | 100.00‡ μM | 100.00‡ μM | 100.00‡ μM | Cc1c(C2(C(=O)N[C@@H](C)c3cc(C#N)ccn3)CC2)c(=O)[nH]c2ccc(F)cc12 (single isomer, unassigned) [compound 2578] |

| Ventricular EC25 ([1]; Y75 value (no ‡ mark)) [µM] | Atrial EC25 ([2]; Y75 value (no ‡ mark)) [µM] | Skeletal EC25 ([3]; Y75 value (no ‡ mark)) [µM] | Skeletal EC25 [3, 4] | Ventricular EC25 [1, 4] | Atrial EC25 [2, 4] | Structure (SMILES) |
| --- | --- | --- | --- | --- | --- | --- |
| 100.00 | 100.00 | 100.00 | – | – | – | Cc1c(C2(C(=O)N[C@H](C)c3cccc(C#N)n3)CC2)c(=O)[nH]c2ccc(F)cc12 (single isomer, unassigned) [compound 2579] |
| 100.00 | 100.00 | 100.00 | – | – | – | C[C@@H](NC(=O)C(F)(F)c1cc2cc(F)ccc2[nH]c1=O)c1cccc(C#N)n1 (single isomer, unassigned) [compound 2581] |
| – | – | – | 75.10‡ μM | 68.39‡ μM | 100.00‡ μM | C[C@H](NC(=O)C(F)(F)c1cc2cc(F)ccc2[nH]c1=O)c1cccc(C#N)n1 (single isomer, unassigned) [compound 2582] |
| 100.00 | 4.31 | 100.00 | – | – | – | C[C@@H](NC(=O)C1(c2cc3c(F)c(F)ccc3[nH]c2=O)CC1)c1cc(C#N)ccn1 (single isomer, unassigned) [compound 2583] |
| – | 100.00 | – | 100.00‡ μM | 100.00‡ μM | – | C[C@H](NC(=O)C1(c2cc3c(F)c(F)ccc3[nH]c2=O)CC1)c1cc(C#N)ccn1 (single isomer, unassigned) [compound 2584] |
| 7.05 | 1.59 | 3.04 | – | – | – | Cc1c(C(F)(F)C(=O)N[C@H](C)c2cc(C#N)ccn2)c(=O)[nH]c2ccc(F)c(F)c12 (single isomer, unassigned) [compound 2585] |
| 3.41 | 0.43 | 1.30 | – | – | – | Cc1c(C2(C(=O)N[C@H](C)c3ncc(C#N)cn3)CC2)c(=O)[nH]c2ccc(F)cc12 (single isomer, unassigned) [compound 2590] |
| 18.78 | 1.52 | 100.00 | – | – | – | Cc1c(C2(C(=O)N[C@@H](C)c3ncc(C#N)cn3)CC2)c(=O)[nH]c2ccc(F)cc12 (single isomer, unassigned) [compound 2591] |
| 0.47 | 0.13 | 3.54 | – | – | – | C[C@@H](NC(=O)C1(c2cc3c(F)c(F)ccc3[nH]c2=O)CC1)c1ncc(C#N)cc1F (single isomer, unassigned) [compound 2592] |
| 1.00 | 0.19 | 1.15 | – | – | – | C[C@H](NC(=O)C1(c2cc3c(F)c(F)ccc3[nH]c2=O)CC1)c1ncc(C#N)cc1F (single isomer, unassigned) [compound 2593] |
| 0.33 | 0.23 | 0.33 | – | – | – | Cc1c(C(F)(F)C(=O)N[C@H](C)c2ncc(C#N)cn2)c(=O)[nH]c2ccc(F)cc12 (single isomer, unassigned) [compound 2594] |
| 0.45 | 0.36 | 0.17 | – | – | – | Cc1c(C(F)(F)C(=O)N[C@@H](C)c2ncc(C#N)cn2)c(=O)[nH]c2ccc(F)cc12 (single isomer, unassigned) [compound 2595] |
| 0.55 | 0.11 | 0.16 | – | – | – | Cc1c(C2(C(=O)N[C@H](C)c3ncc(C#N)cc3F)CC2)c(=O)[nH]c2ccc(F)cc12 (single isomer, unassigned) [compound 2596] |
| 0.39 | 0.09 | 0.12 | – | – | – | Cc1c(C2(C(=O)N[C@@H](C)c3ncc(C#N)cc3F)CC2)c(=O)[nH]c2ccc(F)cc12 (single isomer, unassigned) [compound 2597] |
| 1.10 | 0.60 | – | 100.00‡ μM | – | – | C[C@@H](NC(=O)[C@H](C)c1cc2c(F)c(F)ccc2[nH]c1=O)c1ncc(C#N)cc1F (single isomer, unassigned) [compound 2598] |
| 16.66 | 2.16 | – | 100.00‡ μM | – | – | C[C@H](C(=O)N[C@H](C)c1ncc(C#N)cc1F)c1cc2c(F)c(F)ccc2[nH]c1=O (single isomer, unassigned) [compound 2599] |
| 0.07 | 0.04 | 0.04 | – | – | – | Cc1c([C@H](C)C(=O)N[C@H](C)c2ncc(C#N)cc2F)c(=O)[nH]c2ccc(F)c(F)c12 (single isomer, unassigned) [compound 2601] |
